Measurements reported in ChEMBL document CHEMBL5154716, “Neuropeptide B/W receptor 1 peptidomimetic agonists: Structure-activity relationships and plasma stability” (Eur J Med Chem, 2022).
Blank lines part the entries; values can stand above or below the molecule they belong to. Non-standard residues stand in square brackets, D forms with d. Residues, ends and D or L forms follow the SMILES beside them. *: point of attachment. Propanoyl(3-indol-3-yl) = O=C(CCc1c[nH]c2ccccc12)*; Trp(1-Me) = Cn1cc(C[C@H](N)C(=O)O)c2ccccc21; Tle = CC(C)(C)[C@H](N)C(=O)O; Ava = NCCCCC(=O)O

What was measured:
[1] = target: T1, Neuropeptides B/W receptor type 1 (Homo sapiens, UniProt P48145); test: (§1) Agonist activity at human NPBWR1 expressed in CHO-RD-HGA16 cells measured by calcium mobilization assay; type: functional, cell-based
T1 sequence (P48145 whole entry): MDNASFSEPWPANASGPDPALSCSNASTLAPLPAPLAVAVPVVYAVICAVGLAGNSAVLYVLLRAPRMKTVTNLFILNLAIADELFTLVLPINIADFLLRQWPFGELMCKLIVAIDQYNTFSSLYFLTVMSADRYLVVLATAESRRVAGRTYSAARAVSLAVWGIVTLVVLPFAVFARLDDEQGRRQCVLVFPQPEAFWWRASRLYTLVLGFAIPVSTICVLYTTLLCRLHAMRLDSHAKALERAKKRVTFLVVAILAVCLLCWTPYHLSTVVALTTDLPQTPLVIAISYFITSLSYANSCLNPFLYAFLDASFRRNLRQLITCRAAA

[2] = target: T2, Neuropeptides B/W receptor type 1 (Homo sapiens) (UniProt P48145); test: Agonist activity at human NPBWR1 expressed in CHO-RD-HGA16 cells measured by calcium mobilization assay relative to control; type: functional, cell-based
T2 sequence (whole entry): T1 sequence (P48145 whole entry)

[3] = target: T1, Neuropeptides B/W receptor type 1; test: Antagonist activity at human NPBWR1 expressed in CHO-RD-HGA16 cells measured by calcium mobilization assay; type: functional, cell-based
[4] = target: T2, Neuropeptides B/W receptor type 1 (Homo sapiens); test: Antagonist activity at human NPBWR1 expressed in CHO-RD-HGA16 cells at 10 uM measured by calcium mobilization assay relative to control; type: functional, cell-based; set-up: scale not given: the % may be the effect or the level left; conditions: filed as antagonist
[5] = target: T2, Neuropeptides B/W receptor type 1 (Homo sapiens); test: as §1; type: functional, cell-based; conditions: filed as agonist
[6] = target: T1, Neuropeptides B/W receptor type 1; test: Agonist activity at human NPBWR1 expressed in CHO cells measured by LANCE Ultra cAMP kit-based TR-FRET assay; type: functional, cell-based
[7] = Metabolic stability in male Sprague-Dawley rat plasma assessed as compound remaining at 1 uM measured after […] by LC-MS/MS analysis; type: ADME, cell-free; conditions: read-out: Stability
[8] = Metabolic stability in male Sprague-Dawley rat plasma assessed as half-life at 1 uM measured after 240 mins by LC-MS/MS analysis; type: ADME, cell-free

EC50 [1]: 478 nM
Compound: CC(C)C[C@H](NC(=O)CNC(=O)[C@H](C)NC(=O)[C@H](C)NC(=O)[C@H](CCCNC(=N)N)NC(=O)CNC(=O)CCCCNC(=O)CCCCNC(=O)CCCCNC(=O)[C@H](C)NC(=O)[C@H](Cc1ccc(O)cc1)NC(=O)[C@@H](N)Cc1c[nH]c2ccccc12)C(=O)N[C@@H](CO)C(=O)N[C@@H](CO)C(N)=O (H-WYA[Ava][Ava][Ava]GRAAGLSS-NH2)

EC50 [1]: 463 nM | Emax ([2]; filed as agonist): 57%
Compound: CC(C)C[C@H](NC(=O)CNC(=O)[C@H](C)NC(=O)[C@H](C)NC(=O)[C@H](CCCNC(=N)N)NC(=O)CCCCNC(=O)CCCCNC(=O)CCCCNC(=O)[C@H](CCCCN)NC(=O)[C@H](Cc1ccc(O)cc1)NC(=O)[C@@H](N)Cc1c[nH]c2ccccc12)C(=O)N[C@H](CC(C)C)C(N)=O

EC50 [1]: > 10000 nM | IC50 [3]: 545 nM
Compound: CC(C)C[C@H](NC(=O)[C@H](CC(C)C)NC(=O)CNC(=O)[C@H](C)NC(=O)[C@H](C)NC(=O)[C@H](CCCNC(=N)N)NC(=O)CNC(=O)CCCCNC(=O)CCCCNC(=O)CCCCNC(=O)[C@H](CCCCN)NC(=O)[C@H](Cc1ccc(O)cc1)NC(=O)[C@H](Cc1c[nH]c2ccccc12)NC(=O)[C@@H](N)Cc1cn(C)c2ccccc12)C(N)=O (H-[Trp(1-Me)]WYK[Ava][Ava][Ava]GRAAGLL-NH2)

Activity [4]: 95%
Compound: CCCCCCCCCCCCCCCC(=O)NCCCC[C@@H](NC(=O)[C@H](CCCCN)NC(=O)[C@H](CCCCN)NC(=O)[C@H](CCCCN)NC(=O)[C@H](Cc1ccc(O)cc1)NC(=O)[C@@H](N)Cc1c[nH]c2ccccc12)C(=O)N[C@@H](CCCCN)C(=O)NCCCCC(=O)NCC(=O)N[C@@H](CCCNC(=N)N)C(=O)N[C@@H](C)C(=O)N[C@@H](C)C(=O)NCC(=O)N[C@@H](CC(C)C)C(=O)N[C@@H](CC(C)C)C(N)=O

EC50 [1]: 530 nM | Emax [2]: 38%
Compound: CC(C)C[C@H](NC(=O)[C@@H](CC(C)C)NC(=O)CNC(=O)[C@H](C)NC(=O)[C@H](C)NC(=O)[C@H](CCCNC(=N)N)NC(=O)CCCCNC(=O)CCCCNC(=O)CCCCNC(=O)[C@H](CCCCN)NC(=O)[C@H](Cc1ccc(O)cc1)NC(=O)[C@@H](N)Cc1c[nH]c2ccccc12)C(N)=O

EC80 [5]: 20 nM | Emax ([2]; filed as agonist): 100%
Compound: CSCC[C@H](NC(=O)[C@H](CC(C)C)NC(=O)[C@H](CC(C)C)NC(=O)CNC(=O)[C@H](C)NC(=O)[C@H](C)NC(=O)[C@H](CCCNC(=N)N)NC(=O)CNC(=O)[C@@H](NC(=O)[C@@H](NC(=O)[C@H](Cc1cnc[nH]1)NC(=O)[C@H](Cc1ccc(O)cc1)NC(=O)[C@H](CCCNC(=N)N)NC(=O)[C@@H]1CCCN1C(=O)[C@H](CO)NC(=O)[C@H](C)NC(=O)[C@@H](NC(=O)[C@H](Cc1cnc[nH]1)NC(=O)[C@H](CCCCN)NC(=O)[C@H](Cc1ccc(O)cc1)NC(=O)[C@@H](N)Cc1c[nH]c2ccccc12)C(C)C)[C@@H](C)O)C(C)C)C(=O)NCC(=O)N[C@@H](CC(C)C)C(N)=O

EC50 [6]: 2.7 nM | remaining at 0.25 h, 1 µM [7]: 86% | EC50 [1]: 8 nM | half-life at 1 µM [8]: 39.1 min
Compound: CC(C)C[C@H](NC(=O)[C@H](CC(C)C)NC(=O)CNC(=O)[C@H](C)NC(=O)[C@H](C)NC(=O)[C@H](CCCNC(=N)N)NC(=O)CNC(=O)CCCCNC(=O)CCCCNC(=O)CCCCNC(=O)[C@H](CCCCN)NC(=O)[C@H](Cc1ccc(O)cc1)NC(=O)[C@H](Cc1c[nH]c2ccccc12)NC(=O)CCc1c[nH]c2ccccc12)C(N)=O ({Propanoyl(3-indol-3-yl)}-WYK[Ava][Ava][Ava]GRAAGLL-NH2)

EC50 [1]: 479 nM
Compound: CC(C)C[C@H](NC(=O)CNC(=O)[C@H](C)NC(=O)[C@H](C)NC(=O)[C@H](CCCNC(=N)N)NC(=O)CNC(=O)CCCCNC(=O)CCCCNC(=O)CCCCNC(=O)[C@H](CCCCN)NC(=O)[C@@H](NC(=O)[C@@H](N)Cc1c[nH]c2ccccc12)[C@@H](C)O)C(=O)N[C@H](C(N)=O)C(C)(C)C (H-WTK[Ava][Ava][Ava]GRAAGL[Tle]-NH2)

remaining at 0.25 h, 1 µM [7]: 48%
Compound: CC(C)C[C@H](NC(=O)CNC(=O)[C@H](CO)NC(=O)[C@H](CC(C)C)NC(=O)[C@H](CC(C)C)NC(=O)CNC(=O)[C@H](C)NC(=O)[C@H](C)NC(=O)[C@H](CCCNC(=N)N)NC(=O)CNC(=O)[C@@H](NC(=O)[C@H](CO)NC(=O)[C@H](Cc1ccc(O)cc1)NC(=O)[C@H](CO)NC(=O)[C@H](CO)NC(=O)[C@H](Cc1cnc[nH]1)NC(=O)CNC(=O)[C@H](C)NC(=O)[C@H](C)NC(=O)[C@@H]1CCCN1C(=O)[C@H](CCCCN)NC(=O)[C@H](Cc1ccc(O)cc1)NC(=O)[C@@H](N)Cc1c[nH]c2ccccc12)C(C)C)C(N)=O

EC50 [1]: > 10000 nM
Compound: CC(C)C[C@H](NC(=O)CNC(=O)[C@H](C)NC(=O)[C@H](C)NC(=O)[C@H](C)NC(=O)CNC(=O)CCCCNC(=O)CCCCNC(=O)CCCCNC(=O)[C@H](CCCCN)NC(=O)[C@H](Cc1ccc(O)cc1)NC(=O)[C@@H](N)Cc1c[nH]c2ccccc12)C(=O)N[C@@H](CO)C(=O)N[C@@H](CO)C(N)=O (H-WYK[Ava][Ava][Ava]GAAAGLSS-NH2)

EC50 [1]: 578 nM | Emax [2]: 33%
Compound: CC(C)C[C@H](NC(=O)[C@H](CC(C)C)NC(=O)CNC(=O)[C@H](C)NC(=O)[C@@H](C)NC(=O)[C@H](CCCNC(=N)N)NC(=O)CCCCNC(=O)CCCCNC(=O)CCCCNC(=O)[C@H](CCCCN)NC(=O)[C@H](Cc1ccc(O)cc1)NC(=O)[C@@H](N)Cc1c[nH]c2ccccc12)C(N)=O

EC50 [1]: > 10000 nM | Activity [4]: 95% | IC50 [3]: 840 nM
Compound: CC(C)C[C@H](NC(=O)CNC(=O)[C@H](C)NC(=O)[C@H](C)NC(=O)[C@H](CCCNC(=N)N)NC(=O)CNC(=O)CCCCNC(=O)CCCCNC(=O)CCCCNC(=O)[C@H](C)NC(=O)[C@@H](N)Cc1c[nH]c2ccccc12)C(=O)N[C@@H](CC(C)C)C(=O)N[C@@H](CO)C(N)=O (H-WA[Ava][Ava][Ava]GRAAGLLS-NH2)

EC50 ([1]; cho-rd-hga16): > 10000 nM | IC50 ([3]; cho-rd-hga16): 406 nM
Compound: CCCCCCCCCCCCCCCC(=O)NCCCC[C@H](NC(=O)[C@H](CCCCN)NC(=O)[C@H](CCCCN)NC(=O)[C@H](CCCCN)NC(=O)[C@H](Cc1ccc(O)cc1)NC(=O)[C@@H](N)Cc1c[nH]c2ccccc12)C(=O)N[C@@H](CCCCN)C(=O)NCCCCC(=O)NCC(=O)N[C@@H](CCCNC(=N)N)C(=O)N[C@@H](C)C(=O)N[C@@H](C)C(=O)NCC(=O)N[C@@H](CC(C)C)C(=O)N[C@@H](CC(C)C)C(N)=O

EC50 [1]: > 10000 nM
Compound: CC(C)C[C@H](NC(=O)[C@H](CC(C)C)NC(=O)CNC(=O)[C@H](C)NC(=O)[C@H](C)NC(=O)[C@@H](CCCNC(=N)N)NC(=O)CCCCNC(=O)CCCCNC(=O)CCCCNC(=O)[C@H](CCCCN)NC(=O)[C@H](Cc1ccc(O)cc1)NC(=O)[C@@H](N)Cc1c[nH]c2ccccc12)C(N)=O

EC50 [1]: > 10000 nM | Activity [4]: 81%
Compound: CC(C)C[C@H](NC(=O)[C@H](CC(C)C)NC(=O)CNC(=O)[C@H](C)NC(=O)[C@H](C)NC(=O)[C@H](CCCNC(=N)N)NC(=O)CNC(=O)CCCCNC(=O)CCCCNC(=O)CCCCNC(=O)[C@H](CCCCN)NC(=O)[C@H](NC(=O)[C@@H](N)Cc1c[nH]c2ccccc12)[C@@H](C)O)C(N)=O
